# Patent US10479788B2, “Compounds that inhibit MPS1 kinase” (Cancer Research Technology Limited, priority 2012, dated 2019)
# Target: full length MPS1 (Homo sapiens (Human), UniProt P33981)
# Test: Measurement of Inhibition of MPS1 Kinase
# Type: biochemical
# Conditions: full length MPS1 12.5 nM or 3 nM, H236 peptide 5 μM, ATP 10 μM, 60 min at room temperature, Caliper EZ reader II
# Description: The reaction was carried out for 60 min at room temperature and stopped by the addition of buffer (10 μl) containing 20 mM EDTA, 0.05% (v/v) Brij-35, in 0.1M HEPES-buffered saline (Free acid, Sigma, UK). The plate was read on a Caliper EZ reader II (Caliper Life Sciences).
# The % inhibition of the compounds is calculated relative to the means of selected control wells. […] The % inhibitions at each concentration are then fitted to a 4 parameter logistic fit: y=(a+((b−a)/(1+((c/x^d)))) where a=asym min, b=asym max, c=IC50 and d=hill coefficient
# full length MPS1, sequence (P33981 whole entry): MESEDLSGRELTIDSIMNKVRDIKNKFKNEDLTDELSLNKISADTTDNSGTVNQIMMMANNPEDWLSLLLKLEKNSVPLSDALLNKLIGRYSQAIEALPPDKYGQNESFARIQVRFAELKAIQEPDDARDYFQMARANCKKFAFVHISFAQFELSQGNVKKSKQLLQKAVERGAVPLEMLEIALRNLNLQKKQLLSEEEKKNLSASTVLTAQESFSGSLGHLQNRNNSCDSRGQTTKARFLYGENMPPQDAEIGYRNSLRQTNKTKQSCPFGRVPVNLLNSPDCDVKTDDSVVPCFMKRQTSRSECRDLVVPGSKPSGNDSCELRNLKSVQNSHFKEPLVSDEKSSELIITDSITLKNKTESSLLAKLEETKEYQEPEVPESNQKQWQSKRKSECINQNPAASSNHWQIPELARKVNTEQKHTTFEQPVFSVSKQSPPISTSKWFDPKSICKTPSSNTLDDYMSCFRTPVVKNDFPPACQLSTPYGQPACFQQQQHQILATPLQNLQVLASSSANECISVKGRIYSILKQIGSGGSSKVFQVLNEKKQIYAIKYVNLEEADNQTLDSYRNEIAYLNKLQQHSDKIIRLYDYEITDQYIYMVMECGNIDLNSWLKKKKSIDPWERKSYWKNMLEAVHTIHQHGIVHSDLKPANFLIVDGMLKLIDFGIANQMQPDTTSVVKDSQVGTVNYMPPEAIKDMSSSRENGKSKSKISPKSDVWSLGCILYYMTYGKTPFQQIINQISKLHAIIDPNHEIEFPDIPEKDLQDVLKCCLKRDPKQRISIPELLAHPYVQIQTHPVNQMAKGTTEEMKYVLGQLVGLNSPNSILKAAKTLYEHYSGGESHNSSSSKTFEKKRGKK
structure (smiles),measurement,value
COc1cc(-c2cnn(C)c2)ccc1Nc1ncc2ccnc(N3CCCC3C)c2n1 (stereo not shown) [Example 64],IC50,6 nM
